The text below walks through data of DBAASP.

Some test systems named below: Escherichia coli 55B5; Escherichia coli UB1005; Pseudomonas aeruginosa; Salmonella typhimurium; Staphylococcus aureus; Bacillus cereus; Bacillus pumilus; Shigella dysenteriae; Escherichia coli SBS 363; Micrococcus luteus A270; Bacillus subtilis; Candida glabrata 090902.
Holding throughout (experiment): ≥ marks a high value that may be exact or a test limit, other limits are often not marked, values filed in µg/mL are converted to µM
Assay [1] deals with Acinetobacter calcoaceticus.
The subject of assay [2] is Candida albicans ATCC 2002.
Assay [3] deals with Escherichia coli ATCC 25922.
Assay [4] deals with Staphylococcus aureus ATCC 2592.
The test system of assay [5] is Escherichia coli ATCC 11775.
For assay [6], the system named is Micrococcus luteus ATCC 49732.
Assay [7] deals with Pseudomonas aeruginosa ATCC 14502.
Assay [8] relates to Staphylococcus aureus ATCC 12600.
Assay [9] deals with Staphylococcus aureus ATCC 43300.
In assay [10] the test system is Staphylococcus aureus ATCC 6538.
In assay [11] the test system is Bacillus subtilis ATCC 6633.
In assay [12] the test system is Escherichia coli DH5alpha.
In assay [13] the test system is Escherichia coli DSM 1103.
In assay [14] the test system is Kocuria rhizophila DSM 348.
Assay [15] deals with Micrococcus luteus DSM 1790.
Assay [16] concerns Staphylococcus aureus ATCC 25923.
The subject of assay [17] is Staphylococcus aureus DSM 1104.
For assay [18], the system named is Helicobacter pylori NCTC 11637.
In assay [19] the test system is Nocardia asteroides 201118.

In brackets after ≈: the same amount, converted by molar mass. Some results are limits rather than exact numbers.

On to `CC[C@H](C)[C@H](NC(=O)[C@H](C)N)C(=O)N[C@@H](Cc1cnc[nH]1)C(=O)N[C@@H](CCCCN)C(=O)N[C@@H](CC(C)C)C(=O)N[C@@H](C)C(=O)N[C@@H](Cc1cnc[nH]1)C(=O)N[C@@H](CCCCN)C(=O)N[C@@H](CC(C)C)C(=O)N[C@@H](CC(C)C)C(=O)N[C@@H](CCCCN)C(=O)N[C@@H](CCCCN)C(=O)N[C@@H](CC(C)C)C(=O)N[C@@H](CC(C)C)C(=O)N[C@@H](CCCN=C(N)N)C(=O)N[C@@H](C)C(=O)N[C@H](C(=O)N[C@@H](CCCCN)C(=O)N[C@@H](CCCCN)C(=O)N[C@@H](CC(C)C)C(=O)N[C@@H](C)C(=O)N[C@@H](CC(N)=O)C(=O)O)C(C)C` [AIHKLAHKLLKKLLRAVKKLAN], for which the MIC (usually the lowest concentration found to suppress growth) in the assay with Escherichia coli 55B5 was found to be 2.5 µM (≈ 6.27 µg/mL); with Escherichia coli UB1005, 3.1 µM (≈ 7.77 µg/mL); with Pseudomonas aeruginosa, 4.5 µM (≈ 11.3 µg/mL); against Salmonella typhimurium it was 6 µM (≈ 15 µg/mL); in the assay on Staphylococcus aureus, 30 µM (≈ 75.2 µg/mL).
Turning to `CC[C@H](C)[C@H](NC(=O)CN)C(=O)N[C@@H](Cc1ccccc1)C(=O)N[C@@H](C)C(=O)N[C@@H](CC(C)C)C(=O)N[C@H](C(=O)N[C@@H](CCCCN)C(=O)N[C@H](C(=O)N[C@@H](C)C(=O)N[C@@H](C)C(=O)N[C@@H](CCCCN)C(=O)N[C@@H](Cc1ccccc1)C(=O)N[C@H](C(=O)NCC(=O)N[C@@H](CCCCN)C(=O)N[C@@H](CC(N)=O)C(=O)N[C@@H](CC(C)C)C(=O)N[C@@H](CC(C)C)C(=O)N[C@@H](CCCCN)C(=O)N[C@@H](CCC(N)=O)C(=O)N[C@@H](C)C(=O)NCC(=O)N[C@@H](CCCCN)C(=O)N[C@@H](C)C(=O)NCC(=O)N[C@@H](CC(C)C)C(=O)N[C@@H](CCC(=O)O)C(=O)N[C@@H](Cc1cnc[nH]1)C(=O)N[C@@H](CC(C)C)C(=O)N[C@@H](C)C(=O)N[C@H]1CSSC[C@@H](C(=O)O)NC(=O)[C@H](CCC(N)=O)NC(=O)[C@H](CC(N)=O)NC(=O)[C@H](CC(N)=O)NC(=O)[C@H](C)NC(=O)[C@H](CCCCN)NC1=O)C(C)C)[C@@H](C)O)[C@@H](C)CC` [GIFALIKTAAKFVGKNLLKQAGKAGLEHLACKANNQC], the minimum inhibitory concentration (MIC) was 6.46 µM (≈ 25 µg/mL) in assay [1]; 1.94 µM (≈ 7.5 µg/mL) with Bacillus cereus; 0.646 µM (≈ 2.5 µg/mL) in the assay on Bacillus pumilus; 0.646 µM (≈ 2.5 µg/mL) in assay [2]; 3.23 µM (≈ 12.5 µg/mL) in assay [3]; 12.9 µM (≈ 50 µg/mL) in the assay with Pseudomonas aeruginosa. The MIC was 1.94 µM (≈ 7.5 µg/mL) in the assay on Shigella dysenteriae and 0.646 µM (≈ 2.5 µg/mL) in assay [4].
In the case of `CC[C@H](C)[C@H](NC(=O)[C@H](C)NC(=O)[C@H](C)NC(=O)[C@H](CCC(=O)O)NC(=O)[C@H](CCCCN)NC(=O)CNC(=O)[C@@H](NC(=O)[C@H](CC(N)=O)NC(=O)[C@H](CCCCN)NC(=O)[C@@H](NC(=O)[C@@H](NC(=O)[C@H](CO)NC(=O)[C@H](Cc1c[nH]c2ccccc12)NC(=O)[C@H](CC(C)C)NC(=O)CN)[C@@H](C)O)[C@@H](C)CC)C(C)C)C(=O)N[C@@H](C)C(=O)N[C@@H](C)C(=O)NCC(=O)N[C@@H](CCCCN)C(=O)N[C@@H](C)C(=O)N[C@@H](C)C(=O)N[C@@H](CC(C)C)C(=O)NCC(=O)N[C@@H](C)C(=O)N[C@@H](CC(C)C)C(N)=O` [GLWSTIKNVGKEAAIAAGKAALGAL], the minimal inhibitory concentration (MIC) in [5] was found to be 0.8 µM (≈ 1.93 µg/mL); in assay [3], 6.6 µM (≈ 15.9 µg/mL); in the assay with Escherichia coli SBS 363, 6 µM (≈ 14.5 µg/mL); with Micrococcus luteus A270, 6 µM (≈ 14.5 µg/mL); in [6], 0.8 µM (≈ 1.93 µg/mL); in assay [7], 6 µM (≈ 14.5 µg/mL). For the same molecule, the MIC amounted to 6.6 µM (≈ 15.9 µg/mL) against Pseudomonas aeruginosa, 0.4 µM (≈ 0.964 µg/mL) in assay [8], 26.5 µM (≈ 63.9 µg/mL) in [9] and 6 µM (≈ 14.5 µg/mL) in [10].
On to `CC[C@H](C)[C@H](NC(=O)[C@H](C)NC(=O)CNC(=O)[C@H](C)NC(=O)[C@H](CCCCN)NC(=O)[C@H](CO)NC(=O)[C@H](C)NC(=O)[C@H](CCSC)NC(=O)CN)C(=O)N[C@@H](C)C(=O)NCC(=O)N[C@@H](CCCCN)C(=O)N[C@H](C(=O)N[C@@H](C)C(=O)N[C@@H](CCCCN)C(=O)N[C@H](C(=O)N[C@@H](C)C(=O)N[C@@H](CC(C)C)C(=O)N[C@@H](CCCCN)C(=O)N[C@@H](C)C(=O)N[C@@H](CC(C)C)C(=O)O)C(C)C)[C@@H](C)CC` [GMASKAGAIAGKIAKVALKAL], for which the MIC in [11] was 16.2 µM (≈ 32 µg/mL); in assay [3], 0.0305 µM (≈ 0.0601 µg/mL); in assay [12], no less than 65 µM; in assay [13] it was no less than 65 µM; in assay [14] it was no less than 65 µM; in assay [15] it was no less than 65 µM. The MIC is 5.08 µM (≈ 10 µg/mL) in assay [16] and no less than 65 µM in [17].
Turning to `CC[C@H](C)[C@H](NC(=O)[C@H](CCC(N)=O)NC(=O)[C@H](CCCCN)NC(=O)[C@H](Cc1c[nH]c2ccccc12)NC(=O)[C@H](CC(C)C)NC(=O)[C@H](CCC(N)=O)NC(=O)[C@@H]1CCCN1C(=O)[C@H](CC(C)C)NC(=O)[C@H](CCCCN)NC(=O)[C@H](C)NC(=O)[C@H](CCC(=O)O)NC(=O)[C@H](CCCCN)NC(=O)[C@@H](NC(=O)[C@H](CCSC)NC(=O)[C@@H](NC(=O)[C@@H](NC(=O)[C@@H](NC(=O)[C@@H](N)CO)[C@@H](C)CC)[C@@H](C)CC)[C@@H](C)O)[C@@H](C)O)C(=O)N[C@@H](C)C(=O)N[C@H]1CSSC[C@@H](C(=O)O)NC(=O)[C@H]([C@@H](C)O)NC(=O)[C@H](CC(N)=O)NC(=O)[C@H](Cc2ccc(O)cc2)NC(=O)[C@H](CC(C)C)NC(=O)[C@H](CCCN=C(N)N)NC1=O` [SIITMTKEAKLPQLWKQIACRLYNTC], the MIC in the assay on Bacillus subtilis is no less than 39.3 µM; in assay [2], 9.82 µM (≈ 30 µg/mL); in [3], 19.6 µM (≈ 60 µg/mL); in assay [18] it was 9.82 µM (≈ 30 µg/mL); with Shigella dysenteriae it was no less than 39.3 µM; in assay [4], 4.91 µM (≈ 15 µg/mL).
Consider `CC[C@H](C)[C@H](NC(=O)[C@H](Cc1ccccc1)NC(=O)CNC(=O)[C@H](CCCCN)NC(=O)CNC(=O)[C@H](C)NC(=O)[C@H](CC(N)=O)NC(=O)[C@H](CCCCN)NC(=O)[C@@H](NC(=O)[C@@H](NC(=O)[C@H](CCC(=O)O)NC(=O)[C@H](Cc1c[nH]c2ccccc12)NC(=O)[C@H](CC(C)C)NC(=O)[C@@H](N)CO)[C@@H](C)O)[C@@H](C)CC)C(=O)N[C@@H](CC(C)C)C(=O)N[C@@H](CC(N)=O)C(=O)N[C@H](C(=O)N[C@@H](CC(C)C)C(=O)N[C@@H](CC(=O)O)C(=O)N[C@@H](CCCCN)C(=O)N[C@H](C(=O)N[C@@H](CCCN=C(N)N)C(=O)N[C@H]1CSSC[C@@H](C(=O)N[C@@H](CCCCN)C(=O)N[C@H](C(=O)O)[C@@H](C)O)NC(=O)CNC(=O)CNC(=O)[C@H](C)NC(=O)[C@H](C(C)C)NC(=O)[C@H](CCCCN)NC1=O)[C@@H](C)CC)[C@@H](C)CC` [SLWETIKNAGKGFILNILDKIRCKVAGGCKT], for which the minimal inhibitory concentration (MIC) is 2.78 µM (≈ 9.37 µg/mL) against Bacillus subtilis; 4.44 µM (≈ 15 µg/mL) in assay [2]; no less than 150 µM in the assay with Candida glabrata 090902; 75 µM (≈ 253 µg/mL) in assay [3]; 4.7 µM (≈ 15.9 µg/mL) in assay [19]; 2.78 µM (≈ 9.37 µg/mL) in assay [9].
